Experimental data reported in patent US20140234351A1, “CANCER VACCINES AND VACCINATION METHODS” (ImmunoCellular Therapeutics, Ltd., priority 2013, published 2014).
Read-outs that look alike come from different tables or passages of the source. Where no end group is shown, it is not given here.

Columns and labels:
[1] = biological target: HLA-A*0201 molecules on T2 cells (Homo sapiens, UniProt P04439, D140Y/D185E/D98H/E176V/E277Q/G131W/G231S/I119V/I121R/I166T/I218V/L300P/L318F/N151K/N90K/P208A/P217A/Q86G/Q94H/R138H/R169H/T345S); experiment: T2 cell binding assay of HLA-A2 peptides; details: peptide 75 μg/ml; for binding with T2 cells (affinity in words): conclusion of Example 11; for affinity to HLA-A*0201 molecules (up-regulation of HLA-A*0201 molecules): FIG. 5A
[2] = Immunogenicity in vitro of A2 peptide epitopes (Table 1); format: cell-based; details: Table 1, no method given
[3] = system: human ovarian cancer stem cells 882CSC; experiment: Killing assay of peptide-specific CTLs (DDAO-SE and cleaved caspase-3 method); details: target:effector 1:10, overnight, cleaved caspase-3, FIG. 6A
Procedure: (§1) Human monocyte-derived DCs were generated using previously described methods. […] The DCs were washed and plated in 6-well plates at a concentration of 5×10^6 cells/well IFN-γ (1000 unit/ml), and then monophosphoryl lipid A (MPLA, 20-50 μg/ml) (Cat# L6895, Sigma, St. Louis) was added into the wells to mature the DC for 24 hr or 48 hrs.
(§2) In order to evaluate antigen-specific immune responses, CD8 T cells were isolated from fresh or frozen apheresis by positive selection using Dynabeads® CD8 Positive Isolation Kit (Life Technologies, Grand Island, N.Y.) and co-cultured with autologous mDC for four weeks. DCs were added weekly. Briefly, mDCs were pulsed with synthetic peptides (10 μg/μl) for 6-8 hours at 37° C., and then treated with 20 ug/ml Mitomycin C (Sigma-Aldrich, St. Louis, Mo.) for 25 min at 37° C. and 5% CO2. The mDCs (5×10^4 cells/well) were co-cultured with autologous CD8^+ T cells (5×10^5 cells/well) in a 96-well plate at 37° C., 5% CO2 in a final volume of 200 μl CTL medium (IMDM with 0.24 mM Asparagine, 0.55 mM L-Arginine, 1.5 mM L-Glutamine and 10% heat inactivated human AB serum). Half of the medium was replaced every other day by fresh culture medium containing 40 IU/ml IL-2 and 20 ng/ml IL-7, the 3rd and 4th week 40 U/ml of IL-2 was replaced with 25 ng/ml IL-15. In the culture medium, peptides could also be added to the culture well at a final concentration of 1-2 μg/ml.
(§3) DDAO-SE labeled target cells were mixed with effector cells at a 1:10 ratio in round-bottom 96 well plate and incubated overnight at 37° C., 5% CO2. The cells were washed, fixed, and permeabilized with Fix/Perm solution (BD Biosciences) and then stained for 30 minutes at 4° C. with 10 μl PE-labeled anti-cleaved caspase-3 monoclonal antibody, followed by Cyan flow cytometric analysis (Beckman Coulter, Inc).

[4] = system: human ovarian cancer stem cells 1031CSC; experiment: as above; details: target:effector 1:10, overnight, cleaved caspase-3, FIG. 6B
Procedure: as §1, §2, §3

[5] = system: human ovarian cancer stem cells 1031CSC
Procedure: as §1, §2, §3

[6] = system: human ovarian cancer stem cells 882CSC
Procedure: as §1, §2, §3

## VLPLTVAEV (listed as Homo sapiens) [mesothelinp531]
[1]
  binding with T2 cells (affinity in words): high affinity binding
[1]; overnight
  affinity to HLA-A*0201 molecules (up-regulation of HLA-A*0201 molecules): high affinities
[2]
  Immunogenicity in vitro: Yes

## TLADFDPRV [EphA2p883]
[3]
  cytotoxicity of peptide-specific CTLs against 882CSC: efficiently recognize and lyse
[4]
  cytotoxicity of peptide-specific CTLs against 1031CSC: efficiently recognize and lyse

## KVLEYVIKV (listed as Homo sapiens) [MAGEA1p278]
[1]
  binding with T2 cells (affinity in words): high affinity binding
[2]
  Immunogenicity in vitro: Yes

## SLLFLLFSL (listed as Homo sapiens)
[2]
  Immunogenicity in vitro: Yes

## SLLMWITQC [NY-ESO-1p157]
[2]
  Immunogenicity in vitro: Yes

## WLPFGFILI [IL-13Rα2p345]
[3]
  cytotoxicity of peptide-specific CTLs against 882CSC: efficiently recognize and lyse
[4]
  cytotoxicity of peptide-specific CTLs against 1031CSC: efficiently recognize and lyse

## EIWTHSYKV (listed as Homo sapiens) [FOLR1p191]
[1]
  binding with T2 cells (affinity in words): lower binding capacity
[1]; overnight
  affinity to HLA-A*0201 molecules (up-regulation of HLA-A*0201 molecules): low affinity
[1]; overnight, FIG. 5B
  MFI index (relative binding affinity fluorescence index): less than 1
[2]
  Immunogenicity in vitro: Yes

## CSCC[C@H](NC(=O)[C@@H](N)C(C)C)C(=O)N[C@@H](C)C(=O)NCC(=O)N[C@H](C(=O)NCC(=O)N[C@@H](CO)C(=O)N1CCC[C@H]1C(=O)N[C@@H](Cc1ccc(O)cc1)C(=O)N[C@H](C(=O)O)C(C)C)C(C)C [HER2p773]
[5]
  cytotoxicity of peptide-specific CTLs against 1031CSC: efficiently recognize and lyse
[6]
  cytotoxicity of peptide-specific CTLs against 882CSC: efficiently recognize and lyse
